Patent publication US20230117034A1, “PYRAZOLOTRIAZINES” (Bayer Aktiengesellschaft, priority 2019, published 2023)

Tests used:
[1] = target: T1, CYCLIN K (nuclear staining in CAL-120 cells) (Homo sapiens, UniProt O75909); assay: CYCLIN K nuclear protein level: immunofluorescence high content analysis (CAL-120); assay type: cell-based; details: 24 h, 50% reduction of nuclear CCNK staining intensity, median, read-out: CYCLIN K degradation IF, DC50-[mol/l] (median)
T1 construct: endogenous in cells; host or cells: CAL-120 human breast cancer cells (DSMZ ACC 459)
T1 sequence (O75909 whole entry): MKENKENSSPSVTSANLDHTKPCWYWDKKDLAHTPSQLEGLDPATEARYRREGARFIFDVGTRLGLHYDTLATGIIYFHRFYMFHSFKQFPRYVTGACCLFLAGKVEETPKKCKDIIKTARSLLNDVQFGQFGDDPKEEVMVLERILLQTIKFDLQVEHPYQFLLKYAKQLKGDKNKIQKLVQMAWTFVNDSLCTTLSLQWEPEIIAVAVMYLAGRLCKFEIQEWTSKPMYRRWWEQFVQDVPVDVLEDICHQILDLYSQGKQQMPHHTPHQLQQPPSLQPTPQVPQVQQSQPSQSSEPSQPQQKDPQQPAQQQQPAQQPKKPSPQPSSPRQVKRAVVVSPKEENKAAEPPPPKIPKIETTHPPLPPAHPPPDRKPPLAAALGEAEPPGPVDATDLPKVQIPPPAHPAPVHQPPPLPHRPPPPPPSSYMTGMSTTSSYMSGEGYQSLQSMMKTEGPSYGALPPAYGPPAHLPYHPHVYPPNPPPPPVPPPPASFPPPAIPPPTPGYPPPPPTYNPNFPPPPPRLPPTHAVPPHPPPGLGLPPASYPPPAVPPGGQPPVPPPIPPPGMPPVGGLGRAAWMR
T1 sequence (Q9NYV4 whole entry partner): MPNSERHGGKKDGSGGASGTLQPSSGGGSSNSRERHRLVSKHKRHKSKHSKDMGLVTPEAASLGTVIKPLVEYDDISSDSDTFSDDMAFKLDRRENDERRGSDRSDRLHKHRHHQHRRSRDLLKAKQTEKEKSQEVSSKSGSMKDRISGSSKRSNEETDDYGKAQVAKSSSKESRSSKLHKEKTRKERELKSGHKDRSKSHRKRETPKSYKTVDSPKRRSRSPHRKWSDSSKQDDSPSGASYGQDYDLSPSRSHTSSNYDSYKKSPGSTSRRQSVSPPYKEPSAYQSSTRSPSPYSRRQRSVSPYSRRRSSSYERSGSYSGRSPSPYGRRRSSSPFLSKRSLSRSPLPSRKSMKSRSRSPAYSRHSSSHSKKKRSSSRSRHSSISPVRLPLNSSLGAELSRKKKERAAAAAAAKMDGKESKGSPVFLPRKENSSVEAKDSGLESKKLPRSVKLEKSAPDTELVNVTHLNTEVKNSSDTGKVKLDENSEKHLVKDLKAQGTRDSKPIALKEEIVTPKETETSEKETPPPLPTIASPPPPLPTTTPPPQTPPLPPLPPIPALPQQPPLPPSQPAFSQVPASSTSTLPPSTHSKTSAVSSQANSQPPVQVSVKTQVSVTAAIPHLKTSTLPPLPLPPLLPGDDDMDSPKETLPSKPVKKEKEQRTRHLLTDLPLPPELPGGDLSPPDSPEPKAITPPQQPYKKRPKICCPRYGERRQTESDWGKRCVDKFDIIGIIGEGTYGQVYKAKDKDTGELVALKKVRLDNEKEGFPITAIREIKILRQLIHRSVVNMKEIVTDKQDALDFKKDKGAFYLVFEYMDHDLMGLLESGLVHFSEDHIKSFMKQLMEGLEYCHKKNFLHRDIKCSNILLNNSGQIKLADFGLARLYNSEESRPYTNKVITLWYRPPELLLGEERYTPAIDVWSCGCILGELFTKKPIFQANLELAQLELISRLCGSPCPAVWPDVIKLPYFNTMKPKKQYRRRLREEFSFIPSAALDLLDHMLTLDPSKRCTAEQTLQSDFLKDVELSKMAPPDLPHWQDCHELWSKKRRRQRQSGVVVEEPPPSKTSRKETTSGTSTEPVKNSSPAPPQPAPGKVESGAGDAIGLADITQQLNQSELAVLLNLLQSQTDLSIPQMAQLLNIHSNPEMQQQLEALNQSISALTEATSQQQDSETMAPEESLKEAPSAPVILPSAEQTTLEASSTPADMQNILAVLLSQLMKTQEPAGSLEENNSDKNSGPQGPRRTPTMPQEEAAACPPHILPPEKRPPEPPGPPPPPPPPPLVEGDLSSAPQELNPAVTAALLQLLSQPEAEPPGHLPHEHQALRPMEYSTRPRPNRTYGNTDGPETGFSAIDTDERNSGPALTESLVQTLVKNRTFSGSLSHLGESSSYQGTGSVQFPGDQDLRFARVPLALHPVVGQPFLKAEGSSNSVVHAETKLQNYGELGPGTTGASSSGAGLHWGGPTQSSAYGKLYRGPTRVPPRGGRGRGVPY
In short: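 Readout is automated confocal image analysis of nuclear cyclin K immunofluorescence (Hoechst nuclei) after PFA fixation. Cells were CAL-120, exposed to compound dose-response 24 h at 37 °C; values are DC50 for halving nuclear CCNK signal relative to DMSO and control wells.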

[2] = test system: CAL-120, human breast adenocarcinoma cells; assay: Proliferation assay CAL-120 (crystal violet, 4 days); assay type: cell-based; details: Homo sapiens, CAL-120, 96 h, CAL-120 cells, median, read-out: Prolif-CAL-120, IC50-[mol/l] (median)
In short: (§1)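 Crystal violet proliferation read-out after 4 days of compound exposure (0.01-10 µmol/L; solvent 0.1% DMSO). Extinction at 595 nm, set between zero-point (0%) and vehicle (100%), fitted with 4 parameters to give IC50.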

[3] = test system: MDA-MB-231, human breast cancer cells; assay: Proliferation assay MDA-MB-231 (crystal violet, 4 days); assay type: cell-based; details: Homo sapiens, MDA-MB-231, 96 h, MDA-MB-231 cells, median, read-out: Prolif-MDA MB-231, IC50-[mol/l] (median)
In short: as §1

[4] = test system: BRCA1 mRNA expression in MDA-MB-231 cells; assay: qRT-PCR assay: BRCA1 mRNA expression in MDA-MB-231; assay type: cell-based, human; details: Homo sapiens, MDA-MB-231, Inhibition of BRCA1 mRNA expression in MDA-MB-231 cells; median; read-out: RTqPCR-MDA-MB-231, IC50, BRCA1 (median)
In short: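 Human breast cancer cells, 200,000/well, were treated with test agents for 24 h without interruption after a 24 h settling period. Gene expression came from qPCR on cDNA made from 600 ng RNA, relative to GAPDH.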

CN1CC[C@H]2CN(c3nc(NCc4nc5ccccc5[nH]4)n4ncc(Br)c4n3)C[C@H]21 [Example 179, N-[(1H-benzimidazol-2-yl)methyl]-8-bromo-2-[(3aS,6aS)-1-methylhexahydropyrrolo[3,4-b]pyrrol-5 (1H)-yl]pyrazolo[1,5-a][1,3,5]triazin-4-amine]
DC50 [1]: 1.37 nM
IC50 [2]: 16.7 nM
IC50 [3]: 74.8 nM
IC50 [4]: 21.7 nM

Brc1cnn2c(NCc3nc4ccccc4[nH]3)nc(N3CC4CCC(C3)N4)nc12 [Example 232, N-(1H-benzimidazol-2-ylmethyl)-8-bromo-2-(3,8-diazabicyclo[3.2.1]octan-3-yl)pyrazolo[1,5-a][1,3,5]triazin-4-amine]
DC50 [1]: 1.06 nM
IC50 [2]: 5.25 nM
IC50 [3]: 17.9 nM
IC50 [4]: 4.92 nM

COc1cccc2[nH]c(CNc3nc(N4CCNCC4)nc4c(C5CC5)cnn34)nc12 [Example 211, 8-cyclopropyl-N-[(4-methoxy-1H-benzimidazol-2-yl)methyl]-2-(piperazin-1-yl)pyrazolo[1,5-a][1,3,5]triazin-4-amine]
DC50 [1]: 0.478 nM
IC50 [2]: 2.29 nM
IC50 [3]: 7.03 nM
IC50 [4]: 4.24 nM

Cc1ccc2[nH]c(CNc3nc(N4C[C@H]5C[C@@H]4CO5)nc4c(C5CC5)cnn34)nc2c1 [Example 196, 8-cyclopropyl-N-[(5-methyl-1H-benzimidazol-2-yl)methyl]-2-[(1R,4R)-2-oxa-5-azabicyclo[2.2.1]heptan-5-yl]pyrazolo[1,5-a][1,3,5]triazin-4-amine]
DC50 [1]: 2.29 nM
IC50 [2]: 8.05 nM
IC50 [3]: 12.9 nM
IC50 [4]: 4.27 nM

CN1CCN(c2nc(NCc3nc4ccccc4[nH]3)n3ncc(Br)c3n2)CC1 [Example 18, N-[(1H-benzimidazol-2-yl)methyl]-8-bromo-2-(4-methylpiperazin-1-yl)pyrazolo[1,5-a][1,3,5]triazin-4-amine]
DC50 [1]: 1.39 nM
IC50 [2]: 32.4 nM
IC50 [3]: 31 nM
IC50 [4]: 11.4 nM

COc1cccc2[nH]c(CNc3nc(N4C[C@@H](C)N[C@@H](C)C4)nc4c(C5CC5)cnn34)nc12 [Example 212, 8-cyclopropyl-2-[(3R,5S)-3,5-dimethylpiperazin-1-yl]-N-[(4-methoxy-1H-benzimidazol-2-yl)methyl]pyrazolo[1,5-a][1,3,5]triazin-4-amine]
DC50 [1]: 0.47 nM
IC50 [2]: 2.29 nM
IC50 [3]: 5.45 nM
IC50 [4]: 5.49 nM

COc1cccc2[nH]c(CNc3nc(N4CCN(C)CC4)nc4c(C5CC5)cnn34)nc12 [Example 197, 8-cyclopropyl-N-[(4-methoxy-1H-benzimidazol-2-yl)methyl]-2-(4-methylpiperazin-1-yl)pyrazolo[1,5-a][1,3,5]triazin-4-amine]
DC50 [1]: 0.763 nM
IC50 [2]: 4.99 nM
IC50 [3]: 15.6 nM
IC50 [4]: 6.27 nM

Cc1ccc2[nH]c(CNc3nc(N4C[C@@H](C)N[C@@H](C)C4)nc4c(C5CC5)cnn34)nc2c1 [Example 194, 8-cyclopropyl-2-[(3R,5S)-3,5-dimethylpiperazin-1-yl]-N-[(5-methyl-1H-benzimidazol-2-yl)methyl]pyrazolo[1,5-a][1,3,5]triazin-4-amine]
DC50 [1]: 0.0954 nM
IC50 [2]: 1.16 nM
IC50 [3]: 1.69 nM
IC50 [4]: 0.829 nM

Fc1cccc2[nH]c(CNc3nc(N4CCNCC4)nc4c(C5CC5)cnn34)nc12 [Example 182, 8-cyclopropyl-N-[(4-fluoro-1H-benzimidazol-2-yl)methyl]-2-(piperazin-1-yl)pyrazolo[1,5-a][1,3,5]triazin-4-amine]
DC50 [1]: 0.103 nM
IC50 [2]: 3.7 nM
IC50 [3]: 10.2 nM
IC50 [4]: 3.32 nM

CN1C[C@H]2C[C@@H]1CN2c1nc(NCc2nc3ccccc3[nH]2)n2ncc(Br)c2n1 [Example 218, N-[(1H-benzimidazol-2-yl)methyl]-8-bromo-2-[(1R,4R)-5-methyl-2,5-diazabicyclo[2.2.1]heptan-2-yl]pyrazolo[1,5-a][1,3,5]triazin-4-amine]
DC50 [1]: 0.685 nM
IC50 [2]: 21.1 nM
IC50 [3]: 35.7 nM
IC50 [4]: 12.3 nM

Fc1ccc2[nH]c(CNc3nc(N4CCNCC4)nc4c(C5CC5)cnn34)nc2c1F [Example 174, 8-cyclopropyl-N-[(4,5-difluoro-1H-benzimidazol-2-yl)methyl]-2-(piperazin-1-yl)pyrazolo[1,5-a][1,3,5]triazin-4-amine]
DC50 [1]: 0.0976 nM
IC50 [2]: 1 nM
IC50 [3]: 2.19 nM
IC50 [4]: 0.872 nM

COc1cccc2[nH]c(CNc3nc(N4C[C@@H]5CCCN[C@@H]5C4)nc4c(C5CC5)cnn34)nc12 [Example 214, 8-cyclopropyl-N-[(4-methoxy-1H-benzimidazol-2-yl)methyl]-2-[(4aS,7aS)-octahydro-6H-pyrrolo[3,4-b]pyridin-6-yl]pyrazolo[1,5-a][1,3,5]triazin-4-amine]
DC50 [1]: 0.347 nM
IC50 [2]: 6.2 nM
IC50 [3]: 17.7 nM
IC50 [4]: 19.3 nM

Cc1ccc2[nH]c(CNc3nc(N4CCN(C)CC4)nc4c(C5CC5)cnn34)nc2c1 [Example 210, 8-cyclopropyl-N-[(5-methyl-1H-benzimidazol-2-yl)methyl]-2-(4-methylpiperazin-1-yl)pyrazolo[1,5-a][1,3,5]triazin-4-amine]
DC50 [1]: 0.199 nM
IC50 [2]: 4.66 nM
IC50 [3]: 8.06 nM
IC50 [4]: 2.27 nM

COc1cccc2[nH]c(CNc3nc(N4CCOCC4)nc4c(C5CC5)cnn34)nc12 [Example 213, 8-cyclopropyl-N-[(4-methoxy-1H-benzimidazol-2-yl)methyl]-2-morpholino-pyrazolo[1,5-a][1,3,5]triazin-4-amine]
DC50 [1]: 1.55 nM
IC50 [2]: 10.7 nM
IC50 [3]: 24.8 nM
IC50 [4]: 15 nM

C[C@@H]1CN(c2nc(NCc3nc4c(F)cccc4[nH]3)n3ncc(C4CC4)c3n2)C[C@H](C)N1 [Example 186, 8-cyclopropyl-2-[(3R,5S)-3,5-dimethylpiperazin-1-yl]-N-[(4-fluoro-1H-benzimidazol-2-yl)methyl]pyrazolo[1,5-a][1,3,5]triazin-4-amine]
DC50 [1]: 0.16 nM
IC50 [2]: 4.2 nM
IC50 [3]: 4.94 nM
IC50 [4]: 1.49 nM

Fc1cccc2[nH]c(CNc3nc(N4C[C@@H]5C[C@H]4CO5)nc4c(C5CC5)cnn34)nc12 [Example 183, 8-cyclopropyl-N-[(4-fluoro-1H-benzimidazol-2-yl)methyl]-2-[(1S,4S)-2-oxa-5-azabicyclo[2.2.1]heptan-5-yl]pyrazolo[1,5-a][1,3,5]triazin-4-amine]
DC50 [1]: 1.64 nM
IC50 [2]: 27.4 nM
IC50 [3]: 56 nM
IC50 [4]: 4.17 nM

C[C@@H]1CN(c2nc(NCc3nc4cc(F)ccc4[nH]3)n3ncc(C4CC4)c3n2)C[C@H](C)N1 [Example 175, 8-cyclopropyl-2-[(3R,5S)-3,5-dimethylpiperazin-1-yl]-N-[(5-fluoro-1H-benzimidazol-2-yl)methyl]pyrazolo[1,5-a][1,3,5]triazin-4-amine]
DC50 [1]: 0.147 nM
IC50 [2]: 1.15 nM
IC50 [3]: 3.26 nM
IC50 [4]: 1.63 nM

Cc1ccc2[nH]c(CNc3nc(N4CCOCC4)nc4c(C5CC5)cnn34)nc2c1 [Example 193, 8-cyclopropyl-N-[(5-methyl-1H-benzimidazol-2-yl)methyl]-2-(morpholin-4-yl)pyrazolo[1,5-a][1,3,5]triazin-4-amine]
DC50 [1]: 0.958 nM
IC50 [2]: 5.06 nM
IC50 [3]: 6.64 nM
IC50 [4]: 3.65 nM

Fc1ccc2[nH]c(CNc3nc(N4C[C@@H]5CCCN[C@@H]5C4)nc4c(C5CC5)cnn34)nc2c1 [Example 180, 8-cyclopropyl-N-[(5-fluoro-1H-benzimidazol-2-yl)methyl]-2-[(4aS, 7aS)-octahydro-6H-pyrrolo[3,4-b]pyridin-6-yl]pyrazolo[1,5-a][1,3,5]triazin-4-amine]
DC50 [1]: 0.859 nM
IC50 [2]: 1.27 nM
IC50 [3]: 13.9 nM
IC50 [4]: 12 nM

Cc1ccc2[nH]c(CNc3nc(N4C[C@@H]5CCCN[C@@H]5C4)nc4c(C5CC5)cnn34)nc2c1 [Example 195, 8-cyclopropyl-N-[(5-methyl-1H-benzimidazol-2-yl)methyl]-2-[(4aS,7aS)-octahydro-6H-pyrrolo[3,4-b]pyridin-6-yl]pyrazolo[1,5-a][1,3,5]triazin-4-amine]
DC50 [1]: 1.29 nM
IC50 [2]: 4.46 nM
IC50 [3]: 4.8 nM
IC50 [4]: 2.83 nM

Brc1cnn2c(NCc3nc4ccccc4[nH]3)nc(N3CC4CCC3CN4)nc12 (stereo not drawn) [Example 220, N-(1H-benzimidazol-2-ylmethyl)-8-bromo-2-(2,5-diazabicyclo[2.2.2]octan-2-yl)pyrazolo[1,5-a][1,3,5]triazin-4-amine]
DC50 [1]: 1.14 nM
IC50 [2]: 7.04 nM
IC50 [3]: 21.2 nM
IC50 [4]: 4.18 nM
